Laboratory results: patent US20110301236A1, “HeLa-C3 Apoptosis Inducer from Garcinia paucinervis” (priority 2010, published 2011)

Experiments:
Assay type in all cases: cell-based
HeLa-C3 cells [1] = assay: Cell morphology changes of HeLa-C3 cells during compound treatment (FIG. 2)
Method: Refereeing to FIG. 2, Cell morphology changes during the course of compound treatment. HeLa-C3 cells were treated with compounds of 2 at 25 μM, an anticancer drug, pacilitaxel at 500 nM (serving as a positive control), and a control without any drug for 24, 48, and 72 h. Various cell morphologies were recorded at the indicated time points.

HeLa cells = assay: MTT assay, cell growth inhibition on HeLa cells; settings: 72 h
Method: The measurement of the IC50 was conducted on the isolated compounds using MTT assay. MIT powder was dissolved in PBS at a concentration of 5 mg/mL. For MTT assay, 10 μL of MTT solution was added into each well of a 96-well plate. After 2 h incubation at 37° C., 100 μL 10% SDS solution with 0.01 M HCl was added to dissolve the purple crystals. After 24 h incubation, the optical density (OD) readings at 595 nm were measured using a plate reader. Firstly, 2,500 HeLa cells suspended in 100 μL MEM medium were seeded respectively in a 96-well plate. After 24 h incubation, fresh medium contains various concentrations of each compound were added into the 96-well plate and changed the old medium. The concentrations applied except compound 1 which was from 200 μM to 3.125 μM were ranged from 100 μM to 1.5625 μM, which was achieved by doing two-fold dilutions for 6 times. The OD values of the control group at 0 h and 72 h together with the compound treated groups at 72 h from the MTT assay were measured using a plate reader. IC50 is the concentration of a compound inhibiting 50% of the cell growth.

HeLa-C3 cells [2] = assay: Apoptosis-inducing effect in HeLa-C3 cells (caspase-3 FRET biosensor, YFP/CFP emission ratio); settings: for Apoptotic effect at 10 μM / Apoptotic effect at 25 μM / Apoptotic effect at 50 μM / Apoptotic effect at 100 μM: 72 h, HeLa-C3 cells, YFP/CFP emission ratio
Method: The bioassay method was described in our previous paper with some modifications. All the testing samples were dissolved in DMSO to make stock solutions. The concentration of each stock was at least 1000 times higher than the working concentration. HeLa-C3 cells, which allows detection of apoptotic cell death involving caspase activation, were cultured in minimum essential medium (MEM) containing 10% fetal bovine serum, 100 U/mL penicillin, […] streptomycin, in a 5% CO2 humidity incubator at 37° C. The sample well for apoptotic activity testing was prepared by seeding a well on a 96-well plate with 7500 HeLa-C3 cells suspended in 100 μL culture medium. After 12-16 h incubation, the old medium was removed and 100 μL freshly prepared culture medium containing the testing sample at a certain working concentration was added to both the sample well and the corresponding background well. Culture medium containing 0.1% DMSO was the negative control while 500 nM paclitaxel was the positive control. After that, the plate was read repeatedly by a Perkin-Elmer Victor reader with excitation wavelength at 440±10 nm and emission wavelength at 486±8 nm for CFP (cyan fluorescent protein) and 535±8 nm for YFP (yellow fluorescent protein) at indicated time points. The data acquisition duration was up to 72 h. The YFP/CFP emission ratio was then calculated. The background fluorescence was measured from the wells containing only medium. After subtracting the background fluorescence from the recorded signal, net YFP and CFP readings were obtained. In this paper, Y/C emission ratio is used to represent the effect of FRET, which is equal to the net YFP reading divided by the net CFP reading from the same well. If YFP/CFP emission ratio was reduced below 3, the testing sample was considered as a good apoptotic inducer at that concentration. All samples were tested in triplicate. The whole experiment was repeated for three times.
The biological activity of these new compounds was evaluated for apoptosis inducing effects using genetically engineered HeLa-C3 cells that can produce a fluorescent biosensor capable of detecting caspase-3 activation. These cells emit a green light under normal growth conditions and change to a blue light when caspase-3 is activated during apoptosis to cleave the sensor protein inside the cells. This color change allows one to use a fluorescent plate reader to directly detect the activation level of caspase-3 in HeLa-C3 cells during the course of the compound treatment in a noninvasive way. Based on our previous test results, the emission ratio of YFP (yellow fluorescent protein)/CFP (cyanfluorescent proteins) is usually between 6 and 8 in normal cells, and this ratio will decrease to a value below 3 if a compound can activate caspase-3 and kill cancer cells. Therefore, any compound that can reduce the YFP/CFP emission ratio to a value below 3 is considered positive in activating apoptosis.

SMILES	Cell morphology (HeLa-C3 cells [1]; 25 μM, 24, 48 and 72 h)	IC50 (HeLa cells) [µM]	IC50 (HeLa cells; Homo sapiens, HeLa) [µM]	Apoptotic effect at 10 μM (HeLa-C3 cells [2])	Apoptotic effect at 25 μM (HeLa-C3 cells [2])	Apoptotic effect at 50 μM (HeLa-C3 cells [2])	Apoptotic effect at 100 μM (HeLa-C3 cells [2])	caspase-3 activation in HeLa-C3 cells (HeLa-C3 cells [2]; within 72 h at 25 μM)	Cell morphology (HeLa-C3 cells [1]; 500 nM (positive control), 24, 48 and 72 h)
COC(=O)c1c(O)cc(O)cc1Oc1c(O)c(OC)cc(CC=C(C)C)c1OC [Compound 2, Paucinervin B]	shrinkage and detached morphology	9.5 ± 0.2	< 10	− (“−” means the YFP/CFP emission ratio of compound treated HeLa-C3 cells was above 3 at 72 h)	+ (“+” means the YFP/CFP emission ratio of compound treated HeLa-C3 cells was below 3 at 72 h)	+ (“+” means the YFP/CFP emission ratio of compound treated HeLa-C3 cells was below 3 at 72 h)	+ (“+” means the YFP/CFP emission ratio of compound treated HeLa-C3 cells was below 3 at 72 h)	could activate caspase-3	
COc1c(O)c(CC=C(C)C)cc2c1Oc1cc(O)c(CC=C(C)C)c(O)c1C(=O)O2 [Compound 1, Paucinervin A]		95.6 ± 5.5		− (“−” means the YFP/CFP emission ratio of compound treated HeLa-C3 cells was above 3 at 72 h)	− (“−” means the YFP/CFP emission ratio of compound treated HeLa-C3 cells was above 3 at 72 h)	− (“−” means the YFP/CFP emission ratio of compound treated HeLa-C3 cells was above 3 at 72 h)	+ (“+” means the YFP/CFP emission ratio of compound treated HeLa-C3 cells was below 3 at 72 h)		
CC(=O)O[C@H]1C(=O)[C@@]2(C)[C@H]([C@H](OC(=O)c3ccccc3)[C@]3(O)C[C@H](OC(=O)[C@H](O)[C@@H](NC(=O)c4ccccc4)c4ccccc4)C(C)=C1C3(C)C)[C@]1(OC(C)=O)CO[C@@H]1C[C@@H]2O [paclitaxel, reference compound]									shrinkage and detached morphology
